Earlier results as cited in patent US10632087B2, “Famciclovir and meloxicam combination therapy for functional somatic syndromes” (INNOVATIVE MED CONCEPTS, LLC., priority 2012, dated 2020).

Tested on: fibromyalgia patients
Settings: valacyclovir alone; not recommended as therapy for fibromyalgia

For `CC(C)[C@H](N)C(=O)OCCOCn1cnc2c(=O)[nH]c(N)nc21` [valacyclovir], the “treatment of fibromyalgia patients” value is given as “not successful”.
